Like-named read-outs stand apart in the source and are kept apart here.
Assays:
[1] = tested on: RSV subgenomic replicon 395 HeLa; experiment: RSV subgenomic replicon assay (Renilla luciferase); type: cell-based; details: human respiratory syncytial virus, 168 h
[2] = tested on: human metapneumovirus; experiment: Human Metapneumovirus (hMPV) TCID50 assay; type: cell-based
[3] = tested on: human PIV type 3; experiment: Parainfluenza Virus-3 (PIV-3) plaque assay; type: cell-based
[4] = target: RSV polymerase (Human respiratory syncytial virus A, UniProt P28887); experiment: Standard RSV polymerase assay; type: biochemical
Description: Standard RSV polymerase assays were conducted in the presence of 3 μL extract of RSV-infected cells in a reaction buffer containing 50 mM tris-acetate pH 8, 120 mM K-acetate, 4.5 mM MgCl2, 5% glycerol, 2 mM EDTA, 50 ug/mL BSA, and 3 mM DTT. Varying concentration of test compounds were used to initiate RNA synthesis for 120 mins at 30° C., and radioactive 33P GTP (15 uCi) was used as tracer. The reaction was stopped by adding 50 mM EDTA, and RNA samples were purified through G-50 size exclusion spin columns and phenol-chloroform extraction. The radio-labeled RNA products were resolved by electrophoresis on a 6% polyacrylamide TBE gel, and visualized and quantitated after being exposed on a phosphorlmager screen. Polymerase inhibition experiments (IC50) were conducted the same way in the presence of increasing concentration of test compounds.

[5] = RSV replicon 395 HeLa cells, 7 days incubation, compounds listed in Table A2 and other tested compounds, read-out: EC50
[6] = 168 h, LLC-MK2 cells, 7 days infection, viral load by TCID50 assay, Table C1, read-out: EC50 against human metapneumovirus
[7] = MA104, MA-104 cells, 72 h infection, viral load by plaque assay, Table B1, read-out: EC50 against PIV-3
[8] = RSV replicon 395 HeLa cells, 7 days incubation, compounds listed in Table A1, read-out: EC50

Sequence of RSV polymerase (P28887 whole entry, looked up): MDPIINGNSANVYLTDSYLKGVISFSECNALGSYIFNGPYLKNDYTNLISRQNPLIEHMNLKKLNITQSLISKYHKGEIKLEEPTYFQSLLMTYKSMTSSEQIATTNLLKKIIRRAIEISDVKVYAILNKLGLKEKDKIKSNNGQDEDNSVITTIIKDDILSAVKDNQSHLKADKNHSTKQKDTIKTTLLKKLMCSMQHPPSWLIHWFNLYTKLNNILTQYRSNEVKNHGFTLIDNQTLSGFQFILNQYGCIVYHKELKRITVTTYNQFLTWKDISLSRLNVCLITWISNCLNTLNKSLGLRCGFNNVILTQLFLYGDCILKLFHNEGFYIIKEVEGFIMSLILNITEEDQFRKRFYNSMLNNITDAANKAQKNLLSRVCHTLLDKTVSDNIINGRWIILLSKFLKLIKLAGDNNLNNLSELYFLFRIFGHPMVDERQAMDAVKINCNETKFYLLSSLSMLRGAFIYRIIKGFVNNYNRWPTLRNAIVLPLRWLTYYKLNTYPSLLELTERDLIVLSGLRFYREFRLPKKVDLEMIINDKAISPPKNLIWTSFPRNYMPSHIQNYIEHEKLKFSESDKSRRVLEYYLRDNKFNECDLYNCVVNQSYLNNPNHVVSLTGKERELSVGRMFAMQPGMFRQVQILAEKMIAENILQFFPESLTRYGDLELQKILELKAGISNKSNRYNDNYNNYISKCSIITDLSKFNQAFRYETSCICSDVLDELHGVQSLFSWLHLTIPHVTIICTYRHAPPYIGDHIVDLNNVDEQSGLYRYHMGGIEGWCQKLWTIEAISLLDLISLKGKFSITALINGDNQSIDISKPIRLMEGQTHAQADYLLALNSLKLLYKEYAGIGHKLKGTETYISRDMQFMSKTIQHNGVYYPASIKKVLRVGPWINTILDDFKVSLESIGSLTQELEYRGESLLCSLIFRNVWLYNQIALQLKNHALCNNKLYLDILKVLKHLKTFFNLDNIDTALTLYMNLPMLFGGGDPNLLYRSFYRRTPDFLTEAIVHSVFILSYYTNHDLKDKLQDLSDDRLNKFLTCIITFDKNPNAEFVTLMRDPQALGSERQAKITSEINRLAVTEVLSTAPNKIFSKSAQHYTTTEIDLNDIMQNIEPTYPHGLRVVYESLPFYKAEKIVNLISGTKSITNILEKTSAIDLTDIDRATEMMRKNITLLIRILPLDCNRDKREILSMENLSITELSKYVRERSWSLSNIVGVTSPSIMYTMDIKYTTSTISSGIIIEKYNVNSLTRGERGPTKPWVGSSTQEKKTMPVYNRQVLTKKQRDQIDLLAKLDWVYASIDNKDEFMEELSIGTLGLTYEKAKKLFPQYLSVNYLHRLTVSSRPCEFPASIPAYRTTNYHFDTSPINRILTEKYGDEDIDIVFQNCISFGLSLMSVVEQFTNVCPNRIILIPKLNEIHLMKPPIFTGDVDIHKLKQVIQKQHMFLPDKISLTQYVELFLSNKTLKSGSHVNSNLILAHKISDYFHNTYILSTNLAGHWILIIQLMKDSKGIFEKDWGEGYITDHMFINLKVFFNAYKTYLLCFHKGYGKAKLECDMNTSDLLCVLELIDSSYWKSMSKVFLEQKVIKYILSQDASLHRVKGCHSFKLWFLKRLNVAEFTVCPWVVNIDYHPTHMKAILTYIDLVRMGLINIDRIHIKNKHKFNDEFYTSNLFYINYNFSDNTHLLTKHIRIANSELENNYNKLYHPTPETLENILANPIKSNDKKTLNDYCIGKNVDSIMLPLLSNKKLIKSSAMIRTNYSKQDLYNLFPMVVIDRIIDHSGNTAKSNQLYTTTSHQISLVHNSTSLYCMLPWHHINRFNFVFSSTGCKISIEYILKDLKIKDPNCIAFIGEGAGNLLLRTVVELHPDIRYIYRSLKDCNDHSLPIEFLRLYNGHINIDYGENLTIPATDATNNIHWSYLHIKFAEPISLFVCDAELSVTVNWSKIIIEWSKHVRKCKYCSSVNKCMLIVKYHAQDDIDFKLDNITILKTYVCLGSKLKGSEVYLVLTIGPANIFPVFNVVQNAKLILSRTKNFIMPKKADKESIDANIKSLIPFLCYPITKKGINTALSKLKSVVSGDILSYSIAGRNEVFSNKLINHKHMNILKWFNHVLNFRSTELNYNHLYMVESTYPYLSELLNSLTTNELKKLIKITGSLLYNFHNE

CC(C)(C)C(=O)OCOP(=O)(OCOC(=O)C(C)(C)C)OC[C@@]1(CN=[N+]=[N-])O[C@@H](n2ccc(=O)[nH]c2=O)[C@H](F)[C@@H]1O [Compound 28A]
EC50 [1, 5]: 1 to 50 µM
EC50 [2, 6]: < 20 µM
EC50 [3, 7]: < 20 µM

NC[C@]1(COP(=O)(O)OP(=O)(O)OP(=O)(O)O)O[C@@H](n2cnc3c(N)ncnc32)[C@H](F)[C@@H]1O [Compound 12A]
IC50 [4]: < 1 µM

[N-]=[N+]=NC[C@]1(CO)O[C@@H](n2ccc(N)nc2=O)[C@H](F)[C@@H]1O [Compound 2A]
EC50 [1, 8]: < 1 µM
EC50 [2, 6]: < 20 µM
EC50 [3, 7]: < 20 µM

CCCCC(=O)OC[C@@]1(CN=[N+]=[N-])O[C@@H](n2ccc(N)nc2=O)[C@H](F)[C@@H]1OC(=O)CCCC [Compound 16A]
EC50 [1, 8]: < 1 µM
EC50 [2, 6]: < 20 µM
EC50 [3, 7]: < 20 µM

CCC(=O)OC[C@@]1(CN=[N+]=[N-])O[C@@H](n2ccc(N)nc2=O)[C@H](F)[C@@H]1OC(=O)CC [Compound 15A]
EC50 [1, 8]: < 1 µM
EC50 [2, 6]: < 20 µM
EC50 [3, 7]: < 20 µM

CC(C)OC(=O)OCOP(=O)(OCOC(=O)OC(C)C)OC[C@@]1(CN=[N+]=[N-])O[C@@H](n2ccc(=O)[nH]c2=O)[C@H](F)[C@@H]1O [Compound 17A]
EC50 [1, 5]: 1 to 50 µM
EC50 [2, 6]: < 20 µM
EC50 [3, 7]: < 20 µM

NC[C@]1(COP(=O)(O)OP(=O)(O)OP(=O)(O)O)O[C@@H](n2ccc(=O)[nH]c2=O)[C@H](F)[C@@H]1O [Compound 5A]
IC50 [4]: 1 to 50 µM

CC(C)(C)C(=O)SCCOP(=O)(OCCSC(=O)C(C)(C)C)OC[C@@]1(CN=[N+]=[N-])O[C@@H](n2ccc(=O)[nH]c2=O)[C@H](F)[C@@H]1O [Compound 19A]
EC50 [1, 5]: 1 to 50 µM
EC50 [2, 6]: < 20 µM
EC50 [3, 7]: < 20 µM

CC(C)OC(=O)[C@H](C)NP(=O)(OC[C@@]1(CN=[N+]=[N-])O[C@@H](n2ccc(=O)[nH]c2=O)[C@H](F)[C@@H]1O)Oc1ccccc1 (stereo partly drawn) [Compound 18A]
EC50 ([1]; HeLa): 1 to 50 µM
EC50 ([2]; LLC-MK2, 168 h, read-out: EC50 against human metapneumovirus): < 20 µM
EC50 ([3]; MA104, 72 h, read-out: EC50 against PIV-3): < 20 µM

CC(C)OC(=O)[C@H](C)NP(=O)(N[C@@H](C)C(=O)OC(C)C)OC[C@@]1(CN=[N+]=[N-])O[C@@H](n2ccc(=O)[nH]c2=O)[C@H](F)[C@@H]1O [Compound 20A]
EC50 [1, 5]: 1 to 50 µM

CC(C)(CO)C(=O)SCCOP(=O)(OCCSC(=O)C(C)(C)CO)OC[C@@]1(CN=[N+]=[N-])O[C@@H](n2ccc(=O)[nH]c2=O)[C@H](F)[C@@H]1O [Compound 21A]
EC50 ([1]; HeLa): 1 to 50 µM

CC(C)C(=O)OC[C@@]1(CN=[N+]=[N-])O[C@@H](n2ccc(N)nc2=O)[C@H](F)[C@@H]1OC(=O)C(C)C [Compound 14A]
EC50 [1, 8]: < 1 µM
EC50 [2, 6]: < 20 µM
EC50 [3, 7]: < 20 µM

[N-]=[N+]=NC[C@]1(COP(=O)(O)OP(=O)(O)OP(=O)(O)O)O[C@@H](n2ccc(=O)[nH]c2=O)[C@H](F)[C@@H]1O [Compound 3A]
IC50 [4]: < 1 µM

NC[C@]1(COP(=O)(O)OP(=O)(O)OP(=O)(O)O)O[C@@H](n2ccc(N)nc2=O)[C@H](F)[C@@H]1O [Compound 6A]
IC50 [4]: 1 to 50 µM

[N-]=[N+]=NC[C@]1(COP(=O)(O)OP(=O)(O)OP(=O)(O)O)O[C@@H](n2cnc3c(N)ncnc32)[C@H](F)[C@@H]1O [Compound 11A]
IC50 [4]: < 1 µM

[N-]=[N+]=NC[C@]1(COP(=O)(O)OP(=O)(O)OP(=O)(O)O)O[C@@H](n2ccc(N)nc2=O)[C@H](F)[C@@H]1O [Compound 4A]
IC50 [4]: < 1 µM

CC(C)OC(=O)C(C)NP(=O)(OCCSC(=O)C(C)(C)CO)OC[C@@]1(CN=[N+]=[N-])O[C@@H](n2ccc(=O)[nH]c2=O)[C@H](F)[C@@H]1O (stereo partly drawn) [Compound 22A]
EC50 [1, 5]: 1 to 50 µM

CC(C)OC(=O)CCc1ccccc1OP(=O)(N[C@@H](C)C(=O)OC(C)C)OC[C@@]1(CN=[N+]=[N-])O[C@@H](n2ccc(=O)[nH]c2=O)[C@H](F)[C@@H]1O (stereo partly drawn) [Compound 23A]
EC50 ([1]; HeLa): 1 to 50 µM

[N-]=[N+]=NC[C@]1(CO)O[C@@H](n2cnc3c(=O)[nH]c(N)nc32)[C@H](F)[C@@H]1O [Compound 7A]
EC50 [1, 5]: 1 to 50 µM
EC50 [2, 6]: < 20 µM
